Results from PubChem BioAssay (NCI).
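Growth conditions: 96-well plates. Treatment: test compound, 48 hours, 5 concentrations. Analysis: linear interpolation between bracketing concentrations; unreached endpoints set to highest concentration. The concentration for full growth arrest is given as TGI.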

Experiments:
Experiment in all cases: NCI-60 cell line screen, 48 h
K-562 leukemia = system: K-562 leukemia
SNB-75 CNS = system: SNB-75 CNS
SR leukemia = system: SR leukemia
RPMI-8226 leukemia = system: RPMI-8226 leukemia
HCT-15 colon = system: HCT-15 colon
786-0 renal = system: 786-0 renal
SF-268 CNS = system: SF-268 CNS
RXF 393 renal = system: RXF 393 renal
EKVX NSCLC = system: EKVX NSCLC
MDA-N = system: MDA-N
HT29 colon = system: HT29 colon
KM12 colon = system: KM12 colon
MOLT-4 leukemia = system: MOLT-4 leukemia
NCI-H226 lung = system: NCI-H226 lung
MALME-3M melanoma = system: MALME-3M melanoma
HOP-62 NSCLC = system: HOP-62 NSCLC
UACC-62 melanoma = system: UACC-62 melanoma
HOP-92 NSCLC = system: HOP-92 NSCLC
NCI-H460 lung = system: NCI-H460 lung

| Compound | TGI (K-562 leukemia) [µM] | TGI (SNB-75 CNS) [µM] | TGI (SR leukemia) [µM] | TGI (RPMI-8226 leukemia) [µM] | TGI (HCT-15 colon) [µM] | TGI (786-0 renal) [µM] | TGI (SF-268 CNS) [µM] | TGI (RXF 393 renal) [µM] | TGI (EKVX NSCLC) [µM] | TGI (MDA-N) [µM] | TGI (HT29 colon) [µM] | TGI (KM12 colon) [µM] | TGI (MOLT-4 leukemia) [µM] | TGI (NCI-H226 lung) [µM] | TGI (MALME-3M melanoma) [µM] | TGI (HOP-62 NSCLC) [µM] | TGI (UACC-62 melanoma) [µM] | TGI (HOP-92 NSCLC) [µM] | TGI (NCI-H460 lung) [µM] |
| --- | --- | --- | --- | --- | --- | --- | --- | --- | --- | --- | --- | --- | --- | --- | --- | --- | --- | --- | --- |
| CCN(CC)C(=O)N1CN(c2ccccc2)C2(CCN(CCCSc3ccc(F)cc3)CC2)C1=O | 27.4 | 50.3 | 18 | 41.6 | 26.4 | 25.4 | 36.1 | 29.7 | 33.6 | 21.3 | 13 | 25.3 | 12.5 | 44.4 | 29.6 | – | – | – | – |
| CC1(C)CC2(C)CC1CC2NC(=O)CCN1CCOCC1 (centres undefined) | > 100 | > 100 | > 100 | – | – | > 100 | > 100 | > 100 | > 100 | > 100 | > 100 | > 100 | > 100 | > 100 | > 100 | > 100 | > 100 | > 100 | > 100 |
| CC(NC(=O)C(N)CC(=O)O)NC(=O)N(C)C(C)(C)C (centres undefined) | > 100 | > 100 | > 100 | > 100 | > 100 | > 100 | > 100 | > 100 | > 100 | > 100 | > 100 | > 100 | > 100 | > 100 | > 100 | > 100 | > 100 | – | > 100 |
| C=C(C)[C@@H]1CCC2=C[C@H](CC(C)=CC3=CC(C)=C(O3)[C@@H]1OC)OC2=O | > 100 | > 100 | > 100 | > 100 | > 100 | – | > 100 | 56.9 | > 100 | > 100 | – | > 100 | > 100 | > 100 | > 100 | – | > 100 | > 100 | > 100 |
| N#Cc1ccc(Oc2nc3ccc(C(F)(F)F)cc3nc2-c2ccccc2)cc1 | 55.9 | 32.1 | 9.86 | – | 28.1 | 30.8 | 76.4 | 77.8 | 32.5 | 57.8 | 34.5 | 48.6 | 43.6 | – | 45.3 | 36 | > 100 | 27.5 | 31.4 |
| O=[N+]([O-])c1ccc2c(c1)c(S(=O)(=O)O)cc1nonc12 | > 100 | – | > 100 | > 100 | > 100 | > 100 | > 100 | – | > 100 | > 100 | > 100 | > 100 | > 100 | > 100 | > 100 | > 100 | > 100 | > 100 | > 100 |
| C(=C\c1cc(-c2ccc3ccccc3n2)nc2ccc3ccccc3c12)/c1ccc2ccccc2n1 | > 100 | 97.9 | > 100 | > 100 | > 100 | > 100 | > 100 | > 100 | > 100 | > 100 | > 100 | > 100 | > 100 | > 100 | > 100 | > 100 | > 100 | – | > 100 |
| NS(=O)(=O)c1nnc(NS(=O)(=O)c2ccccc2C(=O)O)s1 | > 100 | – | > 100 | > 100 | > 100 | > 100 | > 100 | > 100 | > 100 | > 100 | > 100 | > 100 | > 100 | > 100 | > 100 | > 100 | > 100 | > 100 | > 100 |
| CCOc1ccc2nc(NC(NC(=O)c3cccnc3)(C(F)(F)F)C(F)(F)F)sc2c1 | > 100 | 68.2 | > 100 | – | > 100 | 94.3 | > 100 | 61.1 | 79.4 | 42.9 | 30.5 | > 100 | 55.5 | > 100 | > 100 | – | 91.6 | 80.6 | > 100 |
| Cc1ccc(C(=O)Nc2ccc(S(=O)(=O)O)c3cc(S(=O)(=O)O)cc(S(=O)(=O)O)c23)cc1NC(=O)c1cccc(NC(=O)Nc2cccc(C(=O)Nc3cc(C(=O)Nc4ccc(S(=O)(=O)O)c5cc(S(=O)(=O)O)cc(S(=O)(=O)O)c45)ccc3C)c2)c1 (tested in a mixture with another compound) | > 50 | > 50 | > 50 | > 50 | > 50 | > 50 | > 50 | > 50 | > 50 | > 50 | > 50 | > 50 | > 50 | > 50 | > 50 | – | > 50 | > 50 | > 50 |
| COc1ccc(Oc2nc(C#CC(C)(C)O)nc(Oc3ccc(OC)cc3)n2)cc1 | > 100 | 31.3 | 3.79 | – | 2.95 | – | 28.5 | 2.85 | 30.7 | 21.6 | 10.8 | 29.2 | – | – | 34.6 | 62.1 | 25 | – | 37.3 |
| C=CCCCCCCCCCOC1C=CC(OC(C)=O)C(COC(C)=O)O1 (centres undefined) | 17.4 | – | > 100 | 84.6 | > 100 | > 100 | > 100 | > 100 | > 100 | > 100 | 48.1 | > 100 | 86 | > 100 | > 100 | > 100 | > 100 | > 100 | > 100 |
| COc1ccc(-c2cc(-c3cc(F)c(Cl)cc3Cl)on2)cc1OC | > 100 | > 100 | 13.1 | > 100 | > 100 | > 100 | > 100 | 46.6 | > 100 | 41 | > 100 | > 100 | 49.5 | 80.6 | > 100 | > 100 | – | > 100 | > 100 |
| c1ccc(-c2cc(-c3cccs3)c(-c3cccs3)o2)cc1 | > 100 | > 100 | > 100 | > 100 | > 100 | > 100 | > 100 | > 100 | > 100 | > 100 | > 100 | > 100 | > 100 | > 100 | – | > 100 | > 100 | > 100 | > 100 |
| CC(C)C1CC[C@H](C)C[C@@H]1OC(=O)C(C(=O)O[C@H]1C[C@@H](C)CCC1C(C)C)C(O)[C@@H]1OC(C)(C)O[C@H]1C1COC(C)(C)O1 (some centres undefined) | 32.2 | 53 | 34.9 | 44.6 | 44.3 | 31.7 | 42.7 | 28.9 | 41.8 | 35.4 | 32.2 | 31.6 | 42.8 | 41.2 | 36 | 37.5 | 40.5 | – | 32.1 |
| CCSc1nc(N)c2c(-c3ccccc3)c3c(nc2n1)CCC3 | > 100 | > 100 | > 100 | > 100 | > 100 | – | > 100 | > 100 | > 100 | > 100 | – | > 100 | > 100 | – | > 100 | > 100 | > 100 | – | > 100 |
| Clc1c(C(Cl)(Cl)Cl)nsc1N1CCCCC1 | 53.2 | 81.8 | 36.5 | 40.9 | 79.9 | 39.2 | > 100 | 32.3 | 79.7 | > 100 | 38.3 | 55.7 | 37.3 | 36.2 | 40.8 | 73.8 | > 100 | – | > 100 |
| Cn1c(=O)c2c(nc(Nc3ccc(Cl)cc3)n3c(=O)n(-c4ccccc4)c(=O)n23)n(C)c1=O | > 100 | > 100 | > 100 | > 100 | > 100 | > 100 | > 100 | > 100 | > 100 | > 100 | > 100 | > 100 | > 100 | > 100 | – | > 100 | > 100 | > 100 | > 100 |
| Oc1cccc(-c2cn3cc(C(F)(F)F)ccc3n2)c1 | > 100 | – | > 100 | – | > 100 | > 100 | > 100 | 50.2 | 70.9 | > 100 | 60.8 | > 100 | 40.1 | > 100 | > 100 | > 100 | > 100 | > 100 | > 100 |
| O=C1ON=C2C3CC4CC12CC1(C3)C(=O)ON=C41 | > 100 | > 100 | > 100 | > 100 | – | > 100 | – | > 100 | > 100 | > 100 | > 100 | > 100 | > 100 | > 100 | > 100 | > 100 | > 100 | > 100 | > 100 |
| c1ccc2nc(CCC3CCCCN3)ccc2c1 (centres undefined) | > 100 | > 100 | > 100 | > 100 | > 100 | > 100 | > 100 | > 100 | > 100 | > 100 | > 100 | > 100 | – | > 100 | > 100 | > 100 | > 100 | > 100 | > 100 |
| Cc1nc2ccccc2n1Cc1nnc(N)o1 | > 100 | > 100 | > 100 | > 100 | > 100 | > 100 | > 100 | > 100 | > 100 | > 100 | > 100 | > 100 | > 100 | – | > 100 | > 100 | > 100 | > 100 | > 100 |
| c1ccc2c(c1)CC1COc3ccccc3C1O2 (centres undefined) | > 100 | > 100 | > 100 | > 100 | > 100 | > 100 | > 100 | – | > 100 | > 100 | > 100 | > 100 | > 100 | > 100 | > 100 | > 100 | > 100 | > 100 | – |
| Nc1ccc(Oc2ccc(C34CC5CC6C3CC3CC4C(C5)C6(c4ccc(Oc5ccc(N)c(O)c5)cc4)C3)cc2)cc1O | > 54.8 | – | 8.49 | 7.94 | 25 | 14.9 | 29.2 | 27 | 22.2 | 14.8 | > 34.7 | 47.8 | 12.9 | 14.3 | 30.4 | 18.3 | 26.3 | 8.41 | > 36.1 |
| CC(=O)Oc1ccc(/C=C/C(=O)O[C@H]2CCCC[C@@H]2OC(=O)/C=C/c2ccc(OC(C)=O)c(OC(C)=O)c2)cc1OC(C)=O | > 100 | 58.3 | > 100 | 31.9 | 31.2 | 36 | 32.6 | 27.7 | 44 | 27.5 | > 100 | 60.2 | 34.8 | – | 37.1 | 32.2 | 17.7 | 33.7 | > 100 |
| S=C(Nc1ccccn1)Nc1ccccc1Cl | > 100 | > 80.4 | > 100 | > 100 | > 100 | > 100 | > 78 | > 100 | > 55.9 | > 100 | > 100 | > 83.4 | > 100 | > 100 | > 79.5 | > 100 | > 100 | – | > 100 |
